# Patent US7459284B2, “Chemiluminescent acridinium compounds and analogues thereof as substrates of hydrolytic enzymes” (Siemens Healthcare Diagnostics Inc., priority 1999, dated 2008)
# Where a name gives a salt, the structure may show the parent alone. Read-outs that look alike come from different tables or passages of the source.
# What was measured:
# [1] = Light emission spectra by Fast Spectral Scanning System (FSSS); assay type: physicochemical
# Experimental: The light emission spectra of compounds 1˜12 and 15˜18 were determined by a Fast Spectral Scanning System (FSSS) of Photo Research (a division of Kollmorgen Corp.) of Burbank, Calif., U.S.A. The experiment was carried out in a dark room. Each compound was dissolved in acetonitrile or N,N-dimethylformamide. The resulting concentrate was diluted with the same solvent to form the working solution, which upon flashing gave a light emission with an adequate intensity. A typical experiment utilized 10˜100 μg or more of the sample in 500 μl of the solvent contained in a 13×100 mm borosilicate test tube. The tube was placed on a test tube rack raised to a proper height. A piece of aluminum foil was placed on the back of the tube to enhance the detectability of the emitted light. The FSSS optical head was placed in front of the tube at an approximate distance of about 130 mm with its lens focused on the liquid in the tube. The sample solution was first treated with 0.35 ml of the Flashing Reagent #1 (Bayer Diagnostics) containing 0.1 N HNO3 and 0.5% H2O2. The room was then darkened, and 0.35 ml of the Flashing Reagent #2 (Bayer Diagnostics) containing 0.25 N NaOH and 0.5% ARQUAD was added to the reaction mixture immediately. (See U.S. Pat. No. 4,927,769, which is commonly assigned and incorporated herein by reference.) The light which was generated instantaneously following the addition of the Reagent #2 was recorded by FSSS for 5 seconds starting from about one second before the Reagent #2 was added.
# [2] = target: T1, alkaline phosphatase (Bos taurus, UniProt P19111); assay: Alkaline phosphatase assay using 2-Phos-DMAE (1) as chemiluminescent substrate; assay type: biochemical; conditions: 0.1 mM substrate, pH 9 Tris, 45° C., 1 hour; R2228P PMT, LL700 filter, 4° C.
# T1 sequence (P19111 20-506): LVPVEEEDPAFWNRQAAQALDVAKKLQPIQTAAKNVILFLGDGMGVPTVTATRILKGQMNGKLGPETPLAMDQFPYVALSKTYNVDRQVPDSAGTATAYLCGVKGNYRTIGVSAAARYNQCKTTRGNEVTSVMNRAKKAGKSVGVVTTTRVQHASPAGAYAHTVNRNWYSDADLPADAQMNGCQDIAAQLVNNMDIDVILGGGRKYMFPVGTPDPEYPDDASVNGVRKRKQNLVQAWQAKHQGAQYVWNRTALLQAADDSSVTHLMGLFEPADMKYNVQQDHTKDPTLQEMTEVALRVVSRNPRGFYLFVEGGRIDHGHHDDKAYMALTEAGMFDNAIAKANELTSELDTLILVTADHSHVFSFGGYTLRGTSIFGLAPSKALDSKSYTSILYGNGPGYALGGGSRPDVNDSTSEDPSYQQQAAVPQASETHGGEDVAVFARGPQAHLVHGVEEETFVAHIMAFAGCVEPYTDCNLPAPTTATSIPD
# Experimental: With one or more of the above approaches combined, several assay systems based on the principle of detecting the long emission signal generated by the action of AP on 2-Phos-DMAE (1) are constructed, and disclosed in the section of Examples. One example (Example 17) consists of the incubation of AP standards in a substrate solution containing 0.1 mM 2-Phos-DMAE (1), 1 mM magnesium chloride in 100 mM, pH 9 Tris buffer at 45° C. for 1 hour. The light outputs were measured on a luminometer equipped with a red-sensitive PMT (R2228P) and a long pass filter (LL700), which is placed in a 4° C. cold room. The sample was treated first with 0.25 N sodium hydroxide solution containing 0.5% AQUARD, immediately followed by 0.5% hydrogen peroxide.
# The substrate solution of 2-Phos-DMAE (1) was prepared at 0.1 mM in 100 mM, pH 9.0 Tris buffer containing 1 mM MgCl2. […] The light outputs were measured for 2 seconds on Bayer Diagnostics Magic Lite Analyzer 1 (MLA-1) equipped with R268 PMT and two LL650 long wavelength pass filters (Corion, Lot No. CFS-002645). […]
# According to Example 16, an assay of alkaline phosphatase was carried out by adding 5 μl of the AP standard to 95 μl of the substrate solution. […] The light outputs were measured for 2 seconds on MLA-1 equipped with R2228P PMT and a LL700 long wavelength pass filters, and the unit was pre-cooled in a cold room (4° C).
# [3] = Quantum yield when flashed with alkaline solution first, then hydrogen peroxide; assay type: physicochemical; conditions: 0.25 N sodium hydroxide with 0.5% AQUARD first, followed by 0.5% hydrogen peroxide
# Experimental: More specifically, when a solution of 1 is treated with 0.25 N sodium hydroxide solution containing 0.5% AQUARD, followed by 0.5% hydrogen peroxide, the quantum yield of 1 is lowered by more than 30 fold. […] Thus, to the advantage of better distinction between the signals of certain chemiluminescent products and their substrates, preferably, said alkaline solution contains sodium hydroxide at concentration of 0.01 to 1.0 N, and AQUARD at concentration of 0.01 to 1%, and said hydrogen peroxide solution contains hydrogen peroxide at concentration of 0.001 to 5%. More preferably, said alkaline solution contains 0.25 N sodium hydroxide and 0.5% AQUARD, and said hydrogen peroxide solution contains 0.5% hydrogen peroxide.
# [4] = target: T1, alkaline phosphatase; assay: Enzymatic conversion of substrate by alkaline phosphatase (HPLC analysis); assay type: biochemical; conditions: alkaline aqueous medium; about 1 hour
# Experimental: A 1 mM DMF solution of the acridinium 3-enol-phosphate (13) was mixed with 150 μL of 100 mM Tris pH 9 also containing 1 mM MgCl2. Alkaline phosphatase (5 μl of a 2 mg/ml solution) was added and the reaction was incubated at room temperature for ˜1 hour. […] The product was isolated by semi-preparative HPLC using a 7.8×300 mm, C18 column. MALDI-TOF MS of the product indicated this was indeed the keto product (14): m/z 521.36 obs. (520.56 calc.).
# A 20 μL DMF solution of the acridan (15) (1.7 mM) was combined with 180 μl of 0.15 M 2-amino-2-methyl-1-propanol pH 10.3 also containing 1 mM magnesium acetate. A clear blue solution was obtained (0.17 mM substrate), which was then treated with alkaline phosphatase (10^−10 moles). The blue color was discharged instantly. […] The reaction mixture was then evaluated by the FSSS to determine the light emission spectrum of the product, which is shown in FIG. 2N. The product was isolated by semi-preparative HPLC. […] (521.56 calc.).
# [5] = strong alkaline solution; disclosed in WO 00/09487; cited from earlier work
# [6] = FSSS, hydrogen peroxide in strong alkaline solution
# [7] = spectral region with signal intensity above 5% of peak height, FSSS scanning limit 380-780 nm, flashed with 0.1 N HNO3/0.5% H2O2 then 0.25 N NaOH/0.5% ARQUAD
Molecule,"Emission Maximum [1, 6]","Emission Range [1, 7]",also measured
"Cc1cc(C(=O)O)cc(C)c1OC(=O)c1c2ccccc2[n+](C)c2ccc(OP(=O)(O)O)cc12.[Na+].[Na+] [Compound 1, (2′,6′-dimethyl-4′-carboxyl)phenyl 10-methyl-2-Phosphoryloxy-acridinium-9-carboxylate bromide]",478 nm,430-600 nm,level of alkaline phosphatase detected [2]: below 1×10^−18 mole; lowering of quantum yield [3]: more than 30 fold; conversion by alkaline phosphatase [4]: excellent substrate
"Cc1cc(C(=O)O)cc(C)c1OC(=O)c1c2ccccc2[n+](C)c2ccc(O)cc12 [Compound 2, (2′,6′-dimethyl-4′-carboxyl)phenyl 2-hydroxy-10-methyl-acridinium-9-carboxylate trifluoroacetate]",602 nm,500-780^ nm,emission λmax [5]: 604 nm; bathochromic shift of emission maximum ([1]; compound 2 relative to compound 1): 128 nm; lowering of quantum yield [3]: basically not affected
"Cc1cc(C(=O)OCc2ccccc2)cc(C)c1OC(=O)c1c2ccccc2[n+](C)c2ccc(OP(=O)(O)O)cc12 [Compound 3, (2′,6′-dimethyl-4′-benzyloxy-carbonyl)phenyl 2-phosphoryloxy-10-methyl-acridinium-9-carboxylate trifluoroacetate]",474 nm,430-600 nm,–
"Cc1cc(C(=O)OCc2ccccc2)cc(C)c1OC(=O)c1c2ccccc2[n+](C)c2ccc(O)cc12 [Compound 4, (2′,6′-dimethyl-4′-benzyl-oxycarbonyl)phenyl 2-hydroxy-10-methyl-acridinium-9-carboxylate trifluoroacetate]",604 nm,500-780^ nm,–
"C[n+]1c2ccccc2c(C(=O)Oc2ccccc2)c2cc(OP(=O)(O)O)ccc21 [Compound 5, phenyl 10-methyl-2-Phosphoryloxy-acridinium-9-carboxylate trifluoroacetate]",478 nm,430-600 nm,–
"C[n+]1c2ccccc2c(C(=O)Oc2ccccc2)c2cc(O)ccc21 [Compound 6, phenyl 2-hydroxy-10-methyl-acridinium-9-carboxylate trifluoromethanesulfonate]",–,–,Emission Maximum [1]: 600 nm; Emission Range [1]: 500-780^ nm
"Cc1cc(C(=O)O)cc(C)c1OC(=O)c1c2ccccc2[n+](CCCCS(=O)(=O)[O-])c2ccc(OP(=O)(O)O)cc12 [Compound 7, (2′, 6′-dimethyl-4′-carboxyl)phenyl 2-phosphoryloxy-10-sulfobutyl-acridinium-9-carboxylate]",474 nm,430-600 nm,–
"Cc1cc(C(=O)O)cc(C)c1OC(=O)c1c2ccccc2[n+](CCCCS(=O)(=O)[O-])c2ccc(O)cc12 [Compound 8, (2′, 6′-dimethyl-4′-carboxyl)phenyl 2-hydroxy-10-sulfobutyl-acridinium-9-carboxylate]",594 nm,500-780^ nm,–
"COc1ccc2c(c1)c(C(=O)Oc1c(C)cc(C(=O)O)cc1C)c1cc(OP(=O)(O)O)ccc1[n+]2C.[Na+].[Na+] [Compound 9, (2′,6′-dimethyl-4′-carboxyl)phenyl 2-phosphoryloxy-7-methoxy-10-methyl acridinium-9-carboxylate]",476 nm,440-600 nm,–
"COc1ccc2c(c1)c(C(=O)Oc1c(C)cc(C(=O)O)cc1C)c1cc(O)ccc1[n+]2C [Compound 10, (2′,6′-dimethyl-4′-carboxyl)phenyl 2-hydroxy-7-methoxy-10-methyl acridinium-9-carboxylate]",674 nm,520-780^ nm,longer emission maxima than unmethoxylated compound 2 ([1]; 2-OH-7-MeO-DMAE vs 2-OH-DMAE): 60-70 nm
"CN1c2ccccc2C2(Oc3ccccc3OC2=O)c2cc(OP(=O)(O)O)ccc21 (centres unmarked) [Compound 11, 2-Phos-Spiroacridan]",474 nm,430-600 nm,–
"Cc1cc(C(=O)O)cc(C)c1OC(=O)c1c2ccccc2[n+](C)c2cc(/C(=C/c3ccc(O)cc3)OP(=O)(O)O)ccc12 [Compound 13, (2′,6′-dimethyl-4′-carboxyl)phenyl 3-(β-phosphoryloxy-4′-hydroxystyryl)-10-methyl acridinium-9-carboxylate trifluoromethanesulfonate]",–,–,conversion by alkaline phosphatase [4]: complete conversion
"C[n+]1c2ccccc2c(C(=O)Oc2ccc(O)cc2)c2ccccc21 [Compound 18, 4′-hydroxyphenyl 10-methyl acridinium-9-carboxylate trifluoromethanesulfonate]",–,–,Emission Maximum [1]: 452 nm; Emission Range [1]: 410-540 nm
"(2′,6′-dimethyl-4′-carboxyl)phenyl 3-(β-phosphoryloxy-4′-hydroxystyryl)-10-methyl acridan [Compound 15]",678 nm,520-780^ nm,conversion by alkaline phosphatase [4]: clean conversion
